Like-named read-outs stand apart in the source and are kept apart here.
Assays:
adjuvant arthritis [1] = test: adjuvant arthritis test of Pearson, prophylactic application; format: in vivo, Wistar rats; settings: for ED50: Rattus norvegicus, po, 408 h, read-out: ED50 Adjuvant arthritis prophyl.; for antiphlogistic activity (in words): appraisal from ED50 values in the arthritis test; for inhibition values (%): prophylactic
Experimental: 3. The adjuvant arthritis test of C. M. Pearson, Proc. Soc. Exp. Biol. 91, 95-101 (1956) was carried out as a further relevant animal experiment for the examination of anti-rheumatic substances.
(§1) Ten Wistar rats weighing from 120-150 g were used for each dose. The same number of animals served as a control. Arthritis was induced with 0.5 ml Freud's adjuvant, by subplantar injection. The test lasted 17 days. At the beginning of the test the paw volume of the non-injected hind paw was determined and this was used as a starting value. Further volume measurements were carried out on the 14th and 17th days of the test. For the result the difference between the starting and finishing volumes of the paw, both of the test group and of the control group, was obtained and the inhibition expressed as a percentage. With daily administration from the time of induction of arthritis onwards (prophylactic application) the following inhibition values (%) were obtained: […]

stomach mucosa = test: induction of stomach ulcers (acute stomach mucous tolerability); format: in vivo, Wistar rats; settings: for Threshold dose Acute stomach mucous tolerability: p.o.; for Effect (ulcer induction): single administration, after 3.5 hours
Excerpt: The most frequent side effect in known anti-rheumatics is poor gastrointestinal tolerance with ulcer induction. For this reason β-elemonic acid was examined for the induction of ulcers. The determination of ulcer formation was made according to W. J. R. Whittle, Brit. J. Pharmacology, 1975, Vol. 55, pp. 242-243; L. Mariani, Europ. J. Toxicol. Eviron., 1975, Vol. 8, pp. 335-39; and R. Menguy and L. Desbaillets, Proc. Soc. Bio., Vol. 125, p. 1108. In the tests, for each dose and control ten male Wistar rats (120-150 g, kept fasting for 16 hours) were used. The provocation of bleeding stomach ulcer took place by oral application of the active ingredient. The animals were sacrificed after 3.5 hours, the stomach removed, opened along the larger curvature and stretched on a foam polystyrene plate. The median ulcer factor of the test group and the control group was determined.

CVF paw edema = test: rat paw edema induced by cobra venom factor (CVF); format: in vivo; settings: for ED30: Rattus norvegicus, po, 3 h, read-out: ED30 CVF edema; for Inhibition effect (%): rat, after three hours, vs control group
Experimental: 2. As a further experiment for testing the antiphlogistic effectiveness there was used rat paw edema induced by means of cobra venom factor (CVF). Since CVF produces inflammation by way of activation of the complementary system, inhibiting substances could open up a new kind of working principle for application in inflammatory illnesses.
Edema was provoked by subplantar injection of CVF (10 units in 1 ml NaCl solution 0.9%) in an amount of 0.1 ml of solution per paw, into one hind paw of each of a number of rats weighing from 120-160 g. After administration of the test substance in a volume of 10 ml/kg body weight the volume of the paw was determined in an overflow device. After three hours the final value was determined. For each dose the test was carried out with five test and five control animals of one sex, and repeated with the same number of animals of the opposite sex. The result was expressed as percentage inhibition of the edema compared with the control group.

[2] = therapeutic range (therapeutic indices); format: in vivo; settings: for selectivity ratio: in vivo, po
Excerpt: An assessment of the effectiveness of elemonic acid was compared with known substances. A quantitative assessment of β-elemonic acid in comparison with known antiphlogistic substances was made possible by determining the therapeutic ranges, i.e. by the safety with which an active ingredient can be used. […] The therapeutic range is given (1) by the ratio between the LD50 and the ED30 in the CVF paw oedema and (2) by the ratio between the dose threshold value of stomach intolerance and the ED50 in the arthritis model. The ED30 and the ED50 values were determined with the aid of a regression line: […]

[3] = acute peroral toxicity in the mouse; settings: in vivo
Experimental: Determination of toxicity of β-elemonic acid was carried out on the mouse and the rat. Acute peroral toxicity in the mouse: 4.640 mg/kg.

carrageenin paw edema = test: carrageenin rat paw edema test of Hillebrecht (antiphlogistic effectiveness); format: in vivo; settings: for Inhibiting effect (%): rat, after three hours, vs control group
Experimental: 1. The antiphlogistic effectiveness was determined by the rat paw edema test of Hillebrecht (J. Hillebrecht, Arzneim, Forsch. 1954, Vol. 4, p. 607). In this test, rats weighing from 120 g-160 g were given a subplantar dose of carrageenin (0.5% in 0.9% NaCl solution) in an amount of 0.1 ml of solution per paw, using one hind paw of each rat, to produce edema. After administration of the test substance, which as a rule should not exceed a volume of 10 ml/kg body weight, the volume of the paw was determined in an overflow device. After three hours the final value was determined. For each dosage level the experiment was performed with five test and five control animals of one sex and repeated with the same number of animals of the opposite sex. The result is expressed as the percentage inhibition of edema as compared with the control group.

young rats = test: comparative side-effect investigation with prednisolone on young rats, 8 days; format: in vivo, rat; design: key: 0: no effect; (-): weak inhibition; -: definite inhibition; ---: very strong inhibition
Experimental: β-Elemonic acid was compared with prednisolone for determining side-effects. Known antiphlogistic substances can cause undesired side-effects, some of which arise even at therapeutic doses. For this reason a comparative investigation of β-elemonic acid with prednisolone was undertaken (H. J. Lee, M. R. I. Soliman in Science 215 989-991, 1982). Carried out on young rats, the duration of application was 8 days. β-Elemonic acid was administered orally up to a dosage of 316 mg/kg body weight, and prednisolone intramuscularly up to a dosage of 5 mg/kg body weight.

rats = test: dose-range study on rats, daily application for 14 days; format: in vivo, rat; settings: daily for 14 days, 681.0 and 1,000.0 mg/kg body weight
adjuvant arthritis [4] = test: adjuvant arthritis test, therapeutic application beginning ten days after induction; format: in vivo, Wistar rats; settings: for inhibition values (%): therapeutic
adrenal gland = adrenal gland weights at termination of the adjuvant arthritis (17-day administration); format: in vivo, Wistar rats; settings: 17-day prophylactic administration
Experimental: as §1

[5] = LD50 / ED30 in the CVF paw oedema, read-out: Therapeutic index 1 (3./1.)
[6] = rat, dose threshold value of stomach intolerance / ED50 in the arthritis model, read-out: Therapeutic index 2 (4./1.)
[7] = po, Table 9, read-out: LD50 Mouse

COc1ccc2c(c1)c(CC(=O)O)c(C)n2C(=O)c1ccc(Cl)cc1 [Indomethacin, reference compound]
ED50 (adjuvant arthritis [1]): 0.26 mg/kg
antiphlogistic activity (in words) (adjuvant arthritis [1]): strongly active
Threshold dose Acute stomach mucous tolerability (stomach mucosa): 5.62 mg/kg
ED30 (CVF paw edema): 4.58 mg/kg
selectivity ratio [2, 5]: 8.73
selectivity ratio [2, 6]: 21.6
LD50 [3, 7]: 40 mg/kg

CCCCC1C(=O)N(c2ccccc2)N(c2ccccc2)C1=O [Phenylbutazone]
inhibition values (%) (adjuvant arthritis [1]; 14th day p.i., 10 mg/kg p.o.): -42%
inhibition values (%) (adjuvant arthritis [1]; 14th day p.i., 31,6 mg/kg p.o.): -57%
inhibition values (%) (adjuvant arthritis [1]; 14th day p.i., 82,5 mg/kg p.o.): -58%
inhibition values (%) (adjuvant arthritis [1]; 17th day p.i., 10 mg/kg p.o.): -31%
inhibition values (%) (adjuvant arthritis [1]; 17th day p.i., 31,6 mg/kg p.o.): -51%
inhibition values (%) (adjuvant arthritis [1]; 17th day p.i., 82,5 mg/kg p.o.): -43%
ED50 (adjuvant arthritis [1]; p.o., regression line): 47.5 mg/kg
antiphlogistic activity (in words) (adjuvant arthritis [1]): weakly active
Inhibiting effect (%) (carrageenin paw edema; 100 mg/kg p.o.): -41%
reduction of edema (in words) (carrageenin paw edema; carrageenin paw edema test in rats): a reduction of edema only at a fairly high dosage level
Inhibition effect (%) (CVF paw edema; 1 mg/kg p.o.): +10%
Inhibition effect (%) (CVF paw edema; 10 mg/kg p.o.): -28%
Inhibition effect (%) (CVF paw edema; 100 mg/kg p.o.): -34%
ED30 (CVF paw edema): 37.7 mg/kg
inhibition of CVF edema (in words) (CVF paw edema; compared with β-elemonic acid): weaker inhibition values
LD50 ([3]; oral, comparison, read-out: LD50): 465 mg/kg

C[C@]12C=CC(=O)C=C1CC[C@@H]1[C@@H]2[C@@H](O)C[C@@]2(C)[C@H]1CC[C@]2(O)C(=O)CO [Prednisolone, reference compound]
Blood picture Leucocytes (young rats; 5 mg/kg intramuscularly): -
Blood picture Lymphocytes (young rats; 5 mg/kg intramuscularly): -
Body weight development (young rats; 5 mg/kg intramuscularly): -
Liver weights (young rats; 5 mg/kg intramuscularly): 0
Thymus weight (young rats; 5 mg/kg intramuscularly): ---
Blood picture Leucocytes (young rats; 2,5 mg/kg intramuscularly): 0
Blood picture Lymphocytes (young rats; 2,5 mg/kg intramuscularly): (-)
Body weight development (young rats; 2,5 mg/kg intramuscularly): -
Liver weights (young rats; 2,5 mg/kg intramuscularly): 0
Thymus weight (young rats; 2,5 mg/kg intramuscularly): ---

CC(C)=CCC[C@H](C(=O)O)[C@@H]1CC[C@]2(C)C3=C(CC[C@@]12C)[C@@]1(C)CCC(=O)C(C)(C)[C@@H]1CC3 [β-Elemonic acid, 13α, 14β, 17α, 20S,-3-Oxo-lanosta-8,24-dien-21-carboxylic acid]
inhibition values (%) (adjuvant arthritis [1]; 14th day p.i., 1 mg/kg p.o.): -55%
inhibition values (%) (adjuvant arthritis [1]; 14th day p.i., 10 mg/kg p.o.): -62%
inhibition values (%) (adjuvant arthritis [1]; 14th day p.i., 100 mg/kg p.o.): -165%
inhibition values (%) (adjuvant arthritis [1]; 17th day p.i., 1 mg/kg p.o.): -38%
inhibition values (%) (adjuvant arthritis [1]; 17th day p.i., 10 mg/kg p.o.): -47%
inhibition values (%) (adjuvant arthritis [1]; 17th day p.i., 100 mg/kg p.o.): -92%
ED50 (adjuvant arthritis [1]): 4.64 mg/kg
Effect (ulcer induction) (stomach mucosa; 10 mg/kg p.o.): 0
Effect (ulcer induction) (stomach mucosa; 100 mg/kg p.o.): 0
Effect (ulcer induction) (stomach mucosa; 316 mg/kg p.o.): 0
Threshold dose Acute stomach mucous tolerability (stomach mucosa): 316.00 mg/kg
Inhibiting effect (%) (carrageenin paw edema; 1 mg/kg p.o.): -7%
Inhibiting effect (%) (carrageenin paw edema; 10 mg/kg p.o.): -21%
Inhibiting effect (%) (carrageenin paw edema; 100 mg/kg p.o.): -33%
aggravating side-effects (rats): no occurrences of aggravating side-effects
inhibition values (%) (adjuvant arthritis [4]; 14th day p.i., 1 mg/kg p.o.): +36%
inhibition values (%) (adjuvant arthritis [4]; 14th day p.i., 10 mg/kg p.o.): -13%
inhibition values (%) (adjuvant arthritis [4]; 14th day p.i., 100 mg/kg p.o.): -38%
inhibition values (%) (adjuvant arthritis [4]; 17th day p.i., 1 mg/kg p.o.): -31%
inhibition values (%) (adjuvant arthritis [4]; 17th day p.i., 10 mg/kg p.o.): -42%
inhibition values (%) (adjuvant arthritis [4]; 17th day p.i., 100 mg/kg p.o.): -81%
inhibition values (in words) (adjuvant arthritis [4]; therapeutic application beginning ten days after induction): pronounced inhibition values
Inhibition effect (%) (CVF paw edema; 1 mg/kg p.o.): -24%
Inhibition effect (%) (CVF paw edema; 10 mg/kg p.o.): -32%
Inhibition effect (%) (CVF paw edema; 100 mg/kg p.o.): -49%
ED30 (CVF paw edema): 3.98 mg/kg
selectivity ratio [2, 5]: 1160
selectivity ratio [2, 6]: 68
Therapeutic indices 1 and 2 compared with comparison substances (in words) ([2]; vs phenylbutazone and indomethacin): several times higher
adrenal gland weights (adrenal gland): inside the normal limits
LD50 [3, 7]: 4640 mg/kg
LD50 ([3]; po, peroral, read-out: Acute peroral toxicity): 4.64 mg/kg
Blood picture Leucocytes (young rats; 100 mg/kg orally): 0
Blood picture Lymphocytes (young rats; 100 mg/kg orally): 0
Body weight development (young rats; 100 mg/kg orally): (-)
Liver weights (young rats; 100 mg/kg orally): 0
Thymus weight (young rats; 100 mg/kg orally): 0
Blood picture Leucocytes (young rats; 316 mg/kg orally): 0
Blood picture Lymphocytes (young rats; 316 mg/kg orally): 0
Body weight development (young rats; 316 mg/kg orally): (-)
Liver weights (young rats; 316 mg/kg orally): 0
Thymus weight (young rats; 316 mg/kg orally): (-)

— patent US4618605A, “Process for the production of β-elemonic acid and pharmaceutical preparations containing said acid” (priority 1983, dated 1986)
